Data set [1] can be described thus: Inhibition of H+/K+ ATPase.
Data set [2] can be described thus: Dissociation constant, pKa of the compound. The data set is classed as physicochemical.

The record followed here is ChEMBL document CHEMBL1140600, “Recent advances in proton pump inhibitors and management of acid-peptic disorders” (Bioorg Med Chem, 2007).

The molecule `CCOC(=O)c1cnc(C[S+]([O-])c2nc3ccccc3[nH]2)nc1N(C)C` (stereo unspecified) displayed an IC50 in data set [1] of 7.5 µM.

Consider `COc1ccc2nc([S@@+]([O-])Cc3ncc(C)c(OC)c3C)[nH]c2c1` [ESOMEPRAZOLE], for which, in data set [2], the pKa was 4.

For `Cc1c(OCC(F)(F)F)ccnc1C[S+]([O-])c1nc2ccccc2[nH]1` (stereo unspecified) [LANSOPRAZOLE], the pKa in data set [2] was found to be 4.

With `COc1ccc2[nH]c([S+]([O-])Cc3ncc(C)c(OC)c3C)nc2c1` (stereo unspecified) [OMEPRAZOLE], in data set [1], the IC50 stood at 5.8 µM.

Molecule `COc1ccnc(C[S+]([O-])c2nc3ccc(OC(F)F)cc3[nH]2)c1OC` (stereo unspecified) [PANTOPRAZOLE] had a pKa in data set [2] of 4.

`COCCCOc1ccnc(C[S+]([O-])c2nc3ccccc3[nH]2)c1C` (stereo unspecified) [RABEPRAZOLE] showed a pKa in data set [2] of 5.
